Experimental data from patent publication US10501459B2, “Substituted imidazo[1,2-a]pyridines as bromodomain inhibitors” (NEOMED Institute, priority 2015, dated 2019).

Columns and labels:
BRD4(BD1) = molecular target: T1, BRD4(BD1) (Homo sapiens, UniProt O60885); experiment: In vitro bromodomain inhibition, BRD4(BD1) / biotinylated H4-tetraacetyl peptide AlphaLISA; type: binding; conditions: His-tagged BRD4 BD1 200 nM, H4 peptide 200 nM, read-out: BRD4α (IC50)
T1 construct: purchased BPS Bioscience
Procedure: a) In Vitro Bromodomain Inhibition
To measure activity of bromodomain inhibitors, a His-epitope tagged BRD4 BD149-170 is purchased from BPS Bioscience. BRD4 binding and inhibition is assessed by monitoring the engagement of biotinylated H4-tetraacetyl peptide (H4K5/8/12/16; AnaSpec #64989-025) with the target using the AlphaLISA technology (Perkin-Elmer). Specifically, in a 384 well OptiPlate, BRD4(BD1) (200 nM final) is pre-incubated with either DMSO (final 1.0% DMSO) or a compound dilution series in DMSO. All reagents are diluted in assay buffer containing 50 mM HEPES (pH 7.4), 100 mM NaCl, 0.1% (w/v) BSA, and 0.05% (w/v) CHAPS. After a 30 minute incubation at room temperature, H4 peptide is added (200 nM final) and the reaction is incubated an additional 30 minutes at room temperature. Alpha streptavidin donor beads and AlphaLISA nickel chelate acceptor beads are then added to a final concentration of 10 μg/mL each. After one hour, equilibration plates are read on an Envision instrument and IC50s calculated using a four parameter non-linear curve fit.

[1] = system: human C-Myc gene transcription in MV-4-11 cells; experiment: Transcription of human C-Myc in human leukemic MV-4-11 cells (QuantiGene 2.0); type: cell-based; conditions: Homo sapiens, MV4-11, 4 h, inhibition of C-Myc mRNA, 4 hours treatment
Procedure: b) Transcription of Human C-Myc in Human Leukemic MV-4-11 Cells:
The effect of compounds on transcription of human C-Myc gene is monitored in human B-myelomonocytic leukemia cell line MV-4-11 (from American Type Culture Collection (ATCC), Manassas, Va., USA) using QuantiGene 2.0 assay kit (Affymetrix, Santa Clara, Calif., USA).
Typically, 8,000 MV-4-11 cells are plated in sterile 96-well plates (Costar #3598 from Fisher Scientific Canada, Ottawa, Ontario, Canada) in Iscove's medium supplemented with 10% fetal bovine serum, glutamine (2 mM), and penicillin (100 I.U.) and streptomycin (100 μg/mL) (all from Wisent Inc., St. Bruno, Quebec, Canada). Compounds are dissolved in DMSO at 30 mM. A series of 1:3 dilutions are first made in DMSO, and further […] dilutions are made in serum-containing cell culture media. The final concentration of DMSO is […] in cell culture media. After cells are treated with various concentrations of test compound for 4 hours, cells are lysed using Quantigene 2.0 sample processing kit (#QS0100). C-Myc mRNA is detected using a QuantiGene 2.0 assay kit (#QS0009) with gene-specific probe to human C-Myc (#SA-50182) following the manufacturer's recommendations. Luminescene signals are read on Flexstation II microplate reader (Molecular Devices, Sunnyvale, Calif., USA). Percentage of inhibition of C-Myc transcription is analyzed using EXCEL (2010 version).

Structure (SMILES)	IC50 (BRD4(BD1))	IC50 [1]
COc1ccc(Cc2cnc3ccc(-c4cc(C)c(=O)n(C)c4)cn23)cc1 [Compound 4, 5-[3-[(4-methoxyphenyl)methyl]imidazo[1,2-a]pyridin-6-yl]-1,3-dimethyl-pyridin-2-one]	313 nM	276 nM
Cc1cc(-c2ccc3ncc(CNc4ccccc4)n3c2)cn(C)c1=O [Compound 10, 5-[3-(anilinomethyl)imidazo[1,2-a]pyridin-6-yl]-1,3-dimethyl-pyridin-2-one]	318 nM	837 nM
Cc1cc(-c2ccc3ncc(Cc4ccc(Cl)cc4)n3c2)cn(C)c1=O [Compound 3, 5-[3-[(4-chlorophenyl)methyl]imidazo[1,2-a]pyridin-6-yl]-1,3-dimethyl-pyridin-2-one]	143 nM	86.3 nM
Cc1cc(-c2ccc3ncc(Cc4cccc(F)c4)n3c2)cn(C)c1=O [Compound 5, 5-[3-[(3-fluorophenyl)methyl]imidazo[1,2-a]pyridin-6-yl]-1,3-dimethyl-pyridin-2-one]	113 nM	93.9 nM
Cc1cc(-c2ccc3ncc(Cc4ccccc4)n3c2)cn(C)c1=O [Compound 1, 5-(3-benzylimidazo[1,2-a]pyridin-6-yl)-1,3-dimethyl-pyridin-2-one]	122 nM	58 nM
Cc1cc(-c2ccc3ncc(CN4CCCCC4)n3c2)cn(C)c1=O [Compound 8, 1,3-dimethyl-5-[3-(1-piperidylmethyl)imidazo[1,2-a]pyridin-6-yl]pyridin-2-one]	195 nM	844 nM
Cc1cc(-c2ccc3ncc(Cc4ccc(F)cc4)n3c2)cn(C)c1=O [Compound 2, 5-[3-[(4-fluorophenyl)methyl]imidazo[1,2-a]pyridin-6-yl]-1,3-dimethyl-pyridin-2-one]	99.5 nM	59.2 nM
Cc1cc(-c2ccc3ncc(COC4CCCC4)n3c2)cn(C)c1=O [Compound 9, 5-[3-(cyclopentoxymethyl)imidazo[1,2-a]pyridin-6-yl]-1,3-dimethyl-pyridin-2-one]	153 nM	152 nM
